Assay [1] has as its system U46619-induced bronchoconstriction. Kind of assay: Bronchodilatation in vivo: inhibition of U46619-induced bronchoconstriction in anaesthetised guinea-pigs. Set-up: species or system guinea-pig (Dunkin Hartley). The note with it: Cavia porcellus, iv; i.v. bolus; U46619 infused i.v. at 2.5 nmol/min; range over the listed Examples; read-out: BD50 (dose of compound required to reduce the U46619-induced bronchoconstriction by 50%). On the procedure:
Male guinea-pigs of the Dunkin Hartley strain (500-600 g) were anaesthetised with Sagatal (pentobarbital sodium) (60 mg/kg). Airway resistance was measured using a modification of the classical Konzett-Rossler technique (J. Pharm. Methods, 13, 309-315, 1985). U46619 (9,11-methanoepoxy-PGH2) was infused i.v. at a rate of 2.5 nmol/min, this produced a steady state of bronchoconstriction (approximately 120% increase from basal airway resistance). The compound under test was administered by i.v. bolus injection, and the subsequent peak inhibition of bronchoconstriction recorded.
The dose of compound required to reduce the U46619-induced bronchoconstriction by 50% is given as the BD50. The compounds of Examples 2, 3, 6, 11, 14 and 15 had BD50 values in the range 0.58-7.24 μmol/kg.

The test system of assay [2] is ovalbumen antigen challenge bronchoconstrictor response. Kind of assay: Anti-allergic activity: inhibition of ovalbumen-induced bronchoconstrictor response in sensitised guinea-pigs. In kind it is in vivo, guinea-pig (Duncan Hartley). The note with it: ovalbumen 1 mg/kg i.v. Here is the method:
Male Duncan Hartley guinea-pigs (250-300 g) were sensitised to ovalbumen by i.p. injection of 2 ml of 50mg.ml^-1 i.p. and 0.2 ml s.c. Three weeks later they were anaesthetised with 60 mg.kg^-1 sodium pentobarbitone. The trachea was cannulated and the animal respired at a rate of 40 breaths per minute and at an initial tracheal inflation pressure of 16 mmHg. Tracheal inflation pressure was measured by a transducer connected to a side arm of the respiration circuit. The carotid artery was cannulated for the measurement of blood pressure and the signal was used to trigger an instantaneous rate meter. A jugular vein was cannulated for the administration of drug and allergen. After surgery the animals were allowed to stabilise and the drug was administered i.v. as a bolus. Following this, ovalbumen 1 mg.kg^-1 was injected i.v. as the antigen challenge either 2, 15 or 30 minutes following drug treatment and the peak bronchoconstrictor response recorded. For the control group ovalbumen only was given. One ovalbumen challenge per guinea-pig was used and n=6 for each time point. The percentage increase in tracheal inflation pressure was calculated. The following results indicating an anti-allergic activity were obtained.

Assay [3] addresses calmodulin insensitive cyclic GMP phosphodiesterase (Homo sapiens, UniProt O76074). Kind of assay: Inhibition of calmodulin insensitive cyclic GMP phosphodiesterase. In kind it is biochemical. As to conditions: procedure of European Patent Application No. 293063; range over the listed Examples; read-out: IC50 (concentration of inhibitor required for 50% inhibition of enzyme activity). Here is the method:
The activity of the compounds of the present invention as inhibitors of a calmodulin insensitive cyclic GMP phosphodiesterase was measured using the procedure described in European Patent Application No. 293063. […] The compounds of the present invention have the advantage that the are selective in not inhibiting cyclic AMP phosphodiesterase (type III)

`O=c1[nH]c(-c2ccccc2OCC2CC2)nc2nc[nH]c12` [Example 2, 2-(2-Cyclopropylmethoxyphenyl)purin-6-one]: the ED50 in assay [1] is 0.58 to 7.24 µmol/kg.
Take `O=c1[nH]c2nc(-c3ccccc3OCC3CC3)[nH]c(=O)c2[nH]1` [Example 3, 2-(2-Cyclopropylmethoxyphenyl)purin-6,8-dione]: the ED50 in assay [1] was 0.58 to 7.24 µmol/kg. For the same molecule, the “% Inhibition of Control Bronchoconstrictor Response 30 min after drug administration” value in assay [2] (dose 18.4 μmol/kg i.v.) was found to be 24%.
For the molecule `CCCOc1ccccc1-c1nc2nc(-c3ccccc3)[nH]c2c(=O)[nH]1` [Example 6, 2-(2-Propoxyphenyl)-8-phenylpurin-6-one], in assay [1], the ED50 fell in the range of 0.58 to 7.24 µmol/kg. Besides, in assay [3], the IC50 fell in the range of 310 to 4800 nM.
On to `CCCOc1ccccc1-c1nc2nc(S)[nH]c2c(=O)[nH]1` [Example 8, 2-(2-Propoxyphenyl)-8-mercaptopurin-6-one], for which the IC50 in assay [3] lay in the range of 310 to 4800 nM.
As for `CCCOc1ccccc1-c1nc2nc(SC)[nH]c2c(=O)[nH]1` [Example 9, 2-(2-Propoxyphenyl)-8-methylthiopurin-6-one], the IC50 in assay [3] lay within 310 to 4800 nM.
In the case of `CCCOc1ccc([N+](=O)[O-])cc1-c1nc2nc[nH]c2c(=O)[nH]1` [Example 11, 2-(2-Propoxy-5-nitrophenyl)purin-6-one], in assay [1], the ED50 fell in the range of 0.58 to 7.24 µmol/kg.
Same read-out and setting: the result for `CCCOc1ccc(OC)cc1-c1nc2nc[nH]c2c(=O)[nH]1` [Example 14, 2-(2-Propoxy-5-methoxyphenyl)purin-6-one] reads 0.58 to 7.24 µmol/kg.
For `CCCOc1ccc(Cl)cc1-c1nc2nc[nH]c2c(=O)[nH]1` [Example 15, 2-(2-Propoxy-5-chlorophenyl)purin-6-one], the ED50 in assay [1] lay within 0.58 to 7.24 µmol/kg. Further, in assay [2] (dose 16.6 μmol/kg i.v.), the “% Inhibition of Control Bronchoconstrictor Response 30 min after drug administration” value amounted to 30%.

The values are drawn from US5073559A, “2-Substituted purinone having phosphodiesterase inhibitory activity” (Smith Kline & French Laboratories, Ltd., priority 1988, dated 1991).
